# Experimental data from patent US20230270713A1, “Administration of Resiniferatoxin For Treatment of Bladder Pain or Bladder Cancer” (Sorrento Therapeutics, Inc., priority 2020, published 2023).
# Where “and” joins values, the source holds several entries; their conditions need not be identical. Identical values can stand only once. Like-named read-outs stand apart in the source and are kept apart here.
# Experiments:
# [1] = Local tolerance and clinical observations after intravesical RTX in dogs; format: in vivo, dog; conditions: single 25 or 250 mcg intravesical
# Description: (§1) Local tolerance and the pharmacokinetic (PK), and toxicokinetic (TK) profile of RTX in dogs was determined after a single instillation of RTX into the bladder of dogs (n=6). The RTX formulations were prepared using aseptic techniques in a biological safety cabinet (BSC) by mixing the appropriate amount of diluent with the appropriate amount of RTX. Dosing formulation concentrations used were 1 and 10 mcg/mL.
# (§2) RTX was administered via intravesical instillation into the urinary bladder. The animals were given a single dose of 25 or 250 mcg/dose in a total volume of 25 mL on Day 1 over a period of 1 hour (±5 minutes). RTX and diluent were administered to the dogs under general anesthesia via a Foley catheter placed into the bladder for 1 hour (±5 minutes).
# Observations for morbidity, mortality, injury, and the availability of food and water were conducted twice daily for all animals. Observations for clinical signs for all animals were conducted on Day 2. The observations included evaluation of the skin, fur, eyes, ears, nose, oral cavity, thorax, abdomen, external genitalia, limbs and feet, respiratory and circulatory effects, autonomic effects such as salivation, and nervous system effects including tremors, convulsions, reactivity to handling, and unusual behavior.
# [2] = Pharmacokinetic/toxicokinetic profile of RTX after intravesical instillation in dogs; format: in vivo, dog
# Description: as §1
# Three male and three female dogs ranging in weight from 5.95 to 8.60 kg were used in the study. The dogs were assigned into Group 1 (receiving a dose of 1 mcg/mL RTX) or Group 2 (receiving a dose of 10 mcg/mL RTX) as shown in the Table 3 below.
# as §2
# Blood samples were collected from all animals on Day 1 pre-dose and at 0.5, 1, 2, 4, 6, 12, 24, 36, 48, 60, and 72 hours post-dose. The toxicokinetic (TK) parameters were determined for RTX, and if appropriate, the metabolites, from mean concentration-time data.
# Cmax is the observed maximum plasma concentration from the start of dosing. Tmax is the time to reach the Cmax. AUC(0-T) is the area under the plasma concentration-time curve from time zero to the last measurable time point calculated by the linear trapezoidal rule.
# [3] = female dogs 1004, 1006 individual, 250 mcg intravesical
# [4] = female dogs, 250 mcg intravesical
smiles,measurement,setting,value
"C=C(C)[C@]12C[C@@H](C)[C@@]34O[C@](Cc5ccccc5)(O[C@@H]1[C@@H]3C=C(COC(=O)Cc1ccc(O)c(OC)c1)C[C@]1(O)C(=O)C(C)=C[C@@H]41)O2 [RTX, resiniferatoxin]","Tolerability, detailed clinical observations, body weight",[1],well tolerated and did not result in any detailed clinical observations or changes in body weight
same,concentration at 2 h,"[2]; both sexes, dog, plasma, other: intravesical instillation, 25 mcg, Group 1 dogs, 25 mL at 1 mcg/mL (25 mcg/dose), 2 hours post-dosing, male and female dog, read-out: plasma concentrations for RTX",< 0.05 ng/mL
same,AUC(0-T) Ratio (Male/Female),"[2]; dogs, 250 mcg intravesical",1.23
same,Cmax Ratio (Male/Female),"[2]; dogs, 250 mcg intravesical",1.28
same,RTX exposure in males compared with females,"[2]; dogs, 250 mcg intravesical",similar
same,Plasma concentration of RTX,"[2]; female dog 1002, 25 mcg intravesical, 2 h",BQL (*BQL—Below quantifiable limit (<50.0 pg/mL); adequate signal-to-noise enabled reporting value as estimate)
same,Plasma concentration of RTX,"[2]; female dog 1002, 25 mcg intravesical, 4 h",BQL (*BQL—Below quantifiable limit (<50.0 pg/mL); adequate signal-to-noise enabled reporting value as estimate)
same,Plasma concentration of RTX,"[2]; female dog 1002, 25 mcg intravesical, 6 h",BQL (*BQL—Below quantifiable limit (<50.0 pg/mL); adequate signal-to-noise enabled reporting value as estimate)
same,Plasma concentration of RTX,"[2]; female dog 1002, 25 mcg intravesical, 12 h",BQL (*BQL—Below quantifiable limit (<50.0 pg/mL); adequate signal-to-noise enabled reporting value as estimate)
same,Plasma concentration of RTX,"[2]; female dog 1002, 25 mcg intravesical, 24 h",BQL (*BQL—Below quantifiable limit (<50.0 pg/mL); adequate signal-to-noise enabled reporting value as estimate)
same,Plasma concentration of RTX,"[2]; female dog 1002, 25 mcg intravesical, 36 h",BQL (*BQL—Below quantifiable limit (<50.0 pg/mL); adequate signal-to-noise enabled reporting value as estimate)
same,Plasma concentration of RTX,"[2]; female dog 1002, 25 mcg intravesical, 48 h",BQL (*BQL—Below quantifiable limit (<50.0 pg/mL); adequate signal-to-noise enabled reporting value as estimate)
same,Plasma concentration of RTX,"[2]; female dog 1002, 25 mcg intravesical, 60 h",BQL (*BQL—Below quantifiable limit (<50.0 pg/mL); adequate signal-to-noise enabled reporting value as estimate)
same,Plasma concentration of RTX,"[2]; female dog 1002, 25 mcg intravesical, 72 h",BQL (*BQL—Below quantifiable limit (<50.0 pg/mL); adequate signal-to-noise enabled reporting value as estimate)
same,Plasma concentration of RTX,"[2]; female dog 1002, 25 mcg intravesical, Predose",BQL (*BQL—Below quantifiable limit (<50.0 pg/mL); adequate signal-to-noise enabled reporting value as estimate)
same,AUC(0-T),[2]; [3],0.441 ng·h/mL and 0.146 ng·h/mL
same,AUC(0-T)/Dose,[2]; [3],1.76 pg·h/mL/µg and 0.584 pg·h/mL/µg
same,Cmax,[2]; [3],0.388 ng/mL and 0.16 ng/mL
same,Cmax/Dose,[2]; [3],1.55 pg/mL/µg and 0.640 pg/mL/µg
same,Plasma concentration of RTX,"[2]; female dogs 1004, 1006 individual, 250 mcg intravesical, 0.5 h",0.388 ng/mL and 0 ng/mL
same,Plasma concentration of RTX,"[2]; female dogs 1004, 1006 individual, 250 mcg intravesical, 1 h",0.16 ng/mL
same,Plasma concentration of RTX,"[2]; female dogs 1004, 1006 individual, 250 mcg intravesical, 2 h",0.0511 ng/mL
same,Plasma concentration of RTX,"[2]; female dogs 1004, 1006 individual, 250 mcg intravesical, 4 h",0 ng/mL
same,Plasma concentration of RTX,"[2]; female dogs 1004, 1006 individual, 250 mcg intravesical, 6 h",0 ng/mL
same,Plasma concentration of RTX,"[2]; female dogs 1004, 1006 individual, 250 mcg intravesical, 12 h",0 ng/mL
same,Plasma concentration of RTX,"[2]; female dogs 1004, 1006 individual, 250 mcg intravesical, 24 h",0 ng/mL
same,Plasma concentration of RTX,"[2]; female dogs 1004, 1006 individual, 250 mcg intravesical, 36 h",0 ng/mL
same,Plasma concentration of RTX,"[2]; female dogs 1004, 1006 individual, 250 mcg intravesical, 48 h",0 ng/mL
same,Plasma concentration of RTX,"[2]; female dogs 1004, 1006 individual, 250 mcg intravesical, 60 h",0 ng/mL
same,Plasma concentration of RTX,"[2]; female dogs 1004, 1006 individual, 250 mcg intravesical, 72 h",0 ng/mL
same,Plasma concentration of RTX,"[2]; female dogs 1004, 1006 individual, 250 mcg intravesical, Predose",0 ng/mL
same,"AUC(0-T)/Dose, Mean",[2]; [4],1.18 pg·h/mL/µg
same,"Cmax/Dose, Mean",[2]; [4],1.10 pg/mL/µg
same,"Plasma concentration of RTX, Mean","[2]; female dogs, 250 mcg intravesical, Predose",0 ng/mL
same,Tmax,"[2]; female, dog, plasma, 250 ug, female dogs 1004, 1006 individual, 250 mcg intravesical, read-out: Tmax",30 min
same,Tmax,"[2]; female, dog, plasma, 250 ug, female dogs, 250 mcg intravesical, read-out: Tmax, Mean",45 ± 21.2 min
same,concentration at 60 h,"[2]; female, dog, plasma, other: intravesical instillation into the urinary bladder, 250 mcg, female dogs 1004, 1006 individual, 250 mcg intravesical, 60 h, read-out: Plasma concentration of RTX",0 ng/mL
same,concentration at 72 h,"[2]; female, dog, plasma, other: intravesical instillation into the urinary bladder, 250 mcg, female dogs 1004, 1006 individual, 250 mcg intravesical, 72 h, read-out: Plasma concentration of RTX",0 ng/mL
same,concentration at 0.5 h,"[2]; female, dog, plasma, other: intravesical instillation into the urinary bladder, 250 mcg, female dogs, 250 mcg intravesical, 0.5 h, read-out: Plasma concentration of RTX, Mean",0.194 ng/mL
same,concentration at 60 h,"[2]; female, dog, plasma, other: intravesical instillation into the urinary bladder, 250 mcg, female dogs, 250 mcg intravesical, 60 h, read-out: Plasma concentration of RTX, Mean",0 ng/mL
same,concentration at 72 h,"[2]; female, dog, plasma, other: intravesical instillation into the urinary bladder, 250 mcg, female dogs, 250 mcg intravesical, 72 h, read-out: Plasma concentration of RTX, Mean",0 ng/mL
same,AUC(0-t),"[2]; female, dog, plasma, other: intravesical instillation, 250 ug, female dogs, 250 mcg intravesical, read-out: AUC(0-T), Mean",0.294 ± 0.209 ng·h/mL
same,Cmax,"[2]; female, dog, plasma, other: intravesical instillation, 250 ug, female dogs, 250 mcg intravesical, read-out: Cmax, Mean",0.274 ± 0.161 ng/mL
same,Tmax,"[2]; female, dog, plasma, other: intravesical instillation, 250 ug, female dogs, 250 mcg intravesical, read-out: Tmax, Mean",45 min
same,concentration at 0.5 h,"[2]; female, dog, plasma, other: intravesical instillation, 25 mcg, female dog 1002, 25 mcg intravesical, 0.5 h, read-out: Plasma concentration of RTX",0.0392 ng/mL
same,concentration at 1 h,"[2]; female, dog, plasma, other: intravesical instillation, 25 mcg, female dog 1002, 25 mcg intravesical, 1 h, read-out: Plasma concentration of RTX",0.0203 ng/mL
same,concentration at 1 h,"[2]; female, dog, plasma, other: intravesical instillation, 250 mcg, female dogs 1004, 1006 individual, 250 mcg intravesical, 1 h, read-out: Plasma concentration of RTX",0.289 ng/mL
same,concentration at 2 h,"[2]; female, dog, plasma, other: intravesical instillation, 250 mcg, female dogs 1004, 1006 individual, 250 mcg intravesical, 2 h, read-out: Plasma concentration of RTX",0.0602 ng/mL
same,concentration at 4 h,"[2]; female, dog, plasma, other: intravesical instillation, 250 mcg, female dogs 1004, 1006 individual, 250 mcg intravesical, 4 h, read-out: Plasma concentration of RTX",0 ng/mL
same,concentration at 6 h,"[2]; female, dog, plasma, other: intravesical instillation, 250 mcg, female dogs 1004, 1006 individual, 250 mcg intravesical, 6 h, read-out: Plasma concentration of RTX",0 ng/mL
same,concentration at 12 h,"[2]; female, dog, plasma, other: intravesical instillation, 250 mcg, female dogs 1004, 1006 individual, 250 mcg intravesical, 12 h, read-out: Plasma concentration of RTX",0 ng/mL
same,concentration at 24 h,"[2]; female, dog, plasma, other: intravesical instillation, 250 mcg, female dogs 1004, 1006 individual, 250 mcg intravesical, 24 h, read-out: Plasma concentration of RTX",0 ng/mL
same,concentration at 36 h,"[2]; female, dog, plasma, other: intravesical instillation, 250 mcg, female dogs 1004, 1006 individual, 250 mcg intravesical, 36 h, read-out: Plasma concentration of RTX",0 ng/mL
same,concentration at 48 h,"[2]; female, dog, plasma, other: intravesical instillation, 250 mcg, female dogs 1004, 1006 individual, 250 mcg intravesical, 48 h, read-out: Plasma concentration of RTX",0 ng/mL
same,concentration at 1 h,"[2]; female, dog, plasma, other: intravesical instillation, 250 mcg, female dogs, 250 mcg intravesical, 1 h, read-out: Plasma concentration of RTX, Mean",0.225 ng/mL
same,concentration at 2 h,"[2]; female, dog, plasma, other: intravesical instillation, 250 mcg, female dogs, 250 mcg intravesical, 2 h, read-out: Plasma concentration of RTX, Mean",0.0557 ng/mL
same,concentration at 4 h,"[2]; female, dog, plasma, other: intravesical instillation, 250 mcg, female dogs, 250 mcg intravesical, 4 h, read-out: Plasma concentration of RTX, Mean",0 ng/mL
same,concentration at 6 h,"[2]; female, dog, plasma, other: intravesical instillation, 250 mcg, female dogs, 250 mcg intravesical, 6 h, read-out: Plasma concentration of RTX, Mean",0 ng/mL
same,concentration at 12 h,"[2]; female, dog, plasma, other: intravesical instillation, 250 mcg, female dogs, 250 mcg intravesical, 12 h, read-out: Plasma concentration of RTX, Mean",0 ng/mL
same,concentration at 24 h,"[2]; female, dog, plasma, other: intravesical instillation, 250 mcg, female dogs, 250 mcg intravesical, 24 h, read-out: Plasma concentration of RTX, Mean",0 ng/mL
same,concentration at 36 h,"[2]; female, dog, plasma, other: intravesical instillation, 250 mcg, female dogs, 250 mcg intravesical, 36 h, read-out: Plasma concentration of RTX, Mean",0 ng/mL
same,concentration at 48 h,"[2]; female, dog, plasma, other: intravesical instillation, 250 mcg, female dogs, 250 mcg intravesical, 48 h, read-out: Plasma concentration of RTX, Mean",0 ng/mL
